The molecules below were run on S. aureus A-9606 (assay: Protective effect in the intramuscular treatment of infected mice). Conditions: Staphylococcus aureus, A9606, im, i.m. 0 and 2 h postinfection, i.p. challenge ~9 × 10^7 (Ex. 4 and 5), read-out: PD50/treatment.
Format: in vivo
Protocol: Treatment Schedule: *For compound of Ex. 2, mice were infected i.p. with
A20481. For compounds of Ex. 4 and 5, mice were infected i.p. with
(A9843A). Mice were treated i.m. with drugs 0 and 2 h postinfection.

Going from `C[C@@H](O)[C@H]1C(=O)N2C(C(=O)[O-])=C(SCC[N+]3(C)CC[S+]([O-])CC3)C[C@H]12` (single isomer, unassigned) [Ex. 5 comp. A] to `C[C@@H](O)[C@H]1C(=O)N2C(C(=O)[O-])=C(SCC[N+]3(C)CCSCC3)C[C@H]12` [Ex. 2, 3-[2-(N-methyl-thiomorpholinium)ethylthio]-6α-[1'-(R)-hydroxyethyl]-7-oxo-1-azabicyclo[3.2.0]-hept-2-ene-2-carboxylate], the ED50 falls from 1.2 mg/kg to 0.72 mg/kg (1.7-fold).

For `C[C@@H](O)[C@H]1C(=O)N2C(C(=O)[O-])=C(SCC[N+]3(C)CCN(C)CC3)C[C@H]12` [Ex. 4, (5R,6S)3-[2-(1,4-dimethyl-1-piperazinium)ethylthio]-6-[1-(R)-hydroxyethyl]-7-oxo-1-azabicyclo[3.2.0]hept-2-ene-2-carboxylate], the ED50 was 1.6 mg/kg.

From patent US4640799A, “Carbapenem antibiotics” (priority 1985, dated 1987)
